Here are results for two compounds from publication PMC4941342, “Proteasomal degradation of sphingosine kinase 1 and inhibition of dihydroceramide desaturase by the sphingosine kinase inhibitors, SKi or ABC294640, induces growth arrest in androgen-independent LNCaP-AI prostate cancer cells” (Oncotarget, 2016).

The structures appear in SMILES notation.

The target of this experiment is T1, dihydroceramide desaturase (Des1) (Homo sapiens, UniProt O15121).
T1 construct: gene DEGS1
T1 sequence (O15121 2-323): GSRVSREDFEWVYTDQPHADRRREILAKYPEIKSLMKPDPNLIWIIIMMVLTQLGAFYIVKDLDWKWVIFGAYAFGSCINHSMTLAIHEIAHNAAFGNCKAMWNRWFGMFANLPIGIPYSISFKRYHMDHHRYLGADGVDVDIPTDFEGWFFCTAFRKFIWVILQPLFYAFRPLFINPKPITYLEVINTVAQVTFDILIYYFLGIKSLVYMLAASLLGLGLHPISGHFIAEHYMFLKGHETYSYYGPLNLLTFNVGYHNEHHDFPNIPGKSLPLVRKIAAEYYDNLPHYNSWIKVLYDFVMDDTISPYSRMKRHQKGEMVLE
Put plainly: Des1 activity in intact Jurkat cells labeled with DhCer-C6-NBD, HPLC with fluorescence detection. In kind it is cell-based.

As usually defined, the IC50 is the concentration needed to halve the response being measured.

Take `O=C(NCc1ccncc1)C12CC3CC(C1)CC(c1ccc(Cl)cc1)(C3)C2` [ABC294640, 3-(4-chlorophenyl)-adamantane-1-carboxylic acid (pyridin-4-ylmethyl)amide]: the half-inhibitory concentration (IC50) came out at 10.2 µM.

The compound `Oc1ccc(Nc2nc(-c3ccc(Cl)cc3)cs2)cc1` [SKi, 2-(p-hydroxyanilino)-4-(p-chlorophenyl)thiazole] yielded an IC50 of 0.63 to 0.69 µM.
